Earlier results, collected in patent US20160101176A1, “POLYMERIC HYDROGEL PHARMACEUTICAL COMPOSITIONS WITH ON-DEMAND RELEASE OF A DRUG IN RESPONSE TO A ELECTRICAL STIMULUS” (UNIVERSITY OF THE WITWATERSRAND, JOHANNESBURG, priority 2013, published 2016).

Assays:
[1] = tested on: plasma proteins; conditions: Raveendran et al., 1992
[2] = rat's cardio-vascular system; Elahi et al., 2009

## COc1ccc2c(c1)c(CC(=O)O)c(C)n2C(=O)c1ccc(Cl)cc1 [indomethacin]
[1]
  protein binding: highly protein bound
[2]
  t1/2: 7 to 10 h
